Assay results reported in US12156917B2, “CNP prodrugs with carrier attachment at the ring moiety” (ASCENDIS PHARMA GROWTH DISORDERS A/S, priority 2016, dated 2024).
Bridge positions count the residues as written; N and C are the ends. Ends that are not written are not given here.

Assays:
[1] = in vivo; cited from earlier work
[2] = doses up to 15 μg/kg, healthy volunteers; cited from earlier work
[3] = system: Crl:CD1(ICR) mice; assay: Evaluation of cardiovascular effects in the conscious telemetered mouse (subcutaneous administration); format: in vivo
Experimental: Male Crl:CD1(ICR) mice (age range 8-13 weeks and body weight range 27.3-35.6 g at start of dosing) were surgically implanted with a TA11PA-C10 telemetry transmitter (Data Sciences International (DSI)) in the carotid artery. The body of the transmitter was placed subcutaneously in the lateral flank of the mouse. The mice were dosed subcutaneously in a latin square crossover design with at least 72 hours between dosing occasions. […] At least four mice were included at each dose level. Blood pressure (systolic (SAP), diastolic (DAP) and mean (MAP) and heart rate (HR, derived from blood pressure), were recorded using a digital data capture system linked with a DSI™ Ponemah data acquisition and analysis system. The capture system allowed recording of the cardiovascular parameters whilst the mice were in individual cages. On the day of each test session the animals were weighed and a predose recording was performed for at least 60 min prior to dosing. Each mouse was returned to the home cage and the cardiovascular parameters were recorded for approximately 48 hours postdose. Blood pressure and HR were reported at the following time points: −30, −20, −10, 5, 15 and 30 min postdose and 1, 2, 6, 12, 18, 24, 30, 36, 42 and 48 hours postdose. Each time point was presented as the average value of five minute's recording prior to the time point. The monitoring period was selected to cover exposure to the test items both prior to and after Tnax.

Compound | half-life [1] [min] | blood pressure effect [2] | MAP predose (mean±SD) ([3]; predose, n = 4) [mmHg] | heart rate (HR) ([3]; sc, 800 μg CNP-38 eq/kg, up to 48 hours postdose) | MAP 5 min post dose (mean±SD) ([3]; sc, 800 μg CNP-38 eq/kg, n = 4) [mmHg] | MAP 15 min post dose (mean±SD) ([3]; sc, 800 μg CNP-38 eq/kg, n = 4) [mmHg] | MAP 30 min post dose (mean±SD) ([3]; sc, 800 μg CNP-38 eq/kg, n = 4) [mmHg]
BMN-111: modified recombinant human C-type Natriuretic Peptide; 17 amino acids added to form a 39 amino acid CNP analog (PGQEHPNARKYKGANKKGLSKGCFGLKLDRIGSMSGLGC; disulfide 23-39; chains of the INN, looked up) | 20 | mild hypotension | – | – | – | – | –
CC[C@H](C)[C@@H]1NC(=O)[C@H](CCCNC(=N)N)NC(=O)[C@H](CC(=O)O)NC(=O)[C@H](CC(C)C)NC(=O)[C@H](CCCCN)NC(=O)[C@H](CC(C)C)NC(=O)CNC(=O)[C@H](Cc2ccccc2)NC(=O)[C@@H](NC(=O)CNC(=O)[C@H](CCCCN)NC(=O)[C@H](CO)NC(=O)[C@H](CC(C)C)NC(=O)CNC(=O)[C@H](CCCCN)NC(=O)[C@H](CCCCN)NC(=O)[C@H](CC(N)=O)NC(=O)[C@H](C)NC(=O)CNC(=O)[C@H](CCCCN)NC(=O)[C@H](Cc2ccc(O)cc2)NC(=O)[C@H](CCCCN)NC(=O)[C@H](CCCNC(=N)N)NC(=O)[C@H](C)NC(=O)[C@H](CC(N)=O)NC(=O)[C@@H]2CCCN2C(=O)[C@H](Cc2c[nH]cn2)NC(=O)[C@H](CCC(=O)O)NC(=O)[C@H](CCC(N)=O)NC(=O)[C@@H](N)CC(C)C)CSSC[C@@H](C(=O)O)NC(=O)CNC(=O)[C@H](CC(C)C)NC(=O)CNC(=O)[C@H](CO)NC(=O)[C@H](CCSC)NC(=O)[C@H](CO)NC(=O)CNC1=O [CNP-38] | – | – | 106.8 ± 13.4 | not impacted | 102.0 ± 7.5 | 89.5 ± 29.4 | 99.5 ± 25.2
